Reference: ChEMBL document CHEMBL5532725, “SARS-CoV-2 Main Protease Inhibitors That Leverage Unique Interactions with the Solvent Exposed S3 Site of the Enzyme” (ACS Med Chem Lett, 2024)

Biological target: Replicase polyprotein 1ab (Severe acute respiratory syndrome coronavirus 2, UniProt P0DTD1)
Assay: Inhibition of SARS-CoV-2 MPro preincubated for 30 mins followed by substrate addition by fluorescence based assay

Row | Structure (SMILES) | IC50 [nM]
1 | CC1(C)[C@@H]2[C@@H](C(=O)N[C@H](C=O)C[C@@H]3CCNC3=O)N(C(=O)[C@H](CC3CCCCC3)NC(=O)OCc3ccccc3)C[C@@H]21 | 250
2 | CC1(C)[C@@H]2[C@@H](C(=O)N[C@H](C=O)C[C@@H]3CCNC3=O)N(C(=O)OC(c3ccccc3)c3ccccc3)C[C@@H]21 | 96
3 | CC1(C)[C@@H]2[C@@H](C(=O)N[C@H](C=O)C[C@@H]3CCNC3=O)N(C(=O)N(c3ccc(Cl)cc3)c3ccc(Cl)cc3)C[C@@H]21 | 450
4 | CC1(C)[C@@H]2[C@@H](C(=O)N[C@H](C=O)C[C@@H]3CCNC3=O)N(C(=O)C(Oc3ccc(Cl)cc3)Oc3ccc(Cl)cc3)C[C@@H]21 | 280
5 | CC1(C)[C@@H]2[C@@H](C(=O)N[C@H](C=O)C[C@@H]3CCNC3=O)N(C(=O)C(c3ccc(Cl)cc3)c3ccc(Cl)cc3)C[C@@H]21 | 280
6 | CC1(C)[C@@H]2[C@@H](C(=O)N[C@H](C=O)C[C@@H]3CCNC3=O)N(C(=O)OC(c3ccc(F)cc3)c3ccc(F)cc3)C[C@@H]21 | 94
7 | CC1(C)[C@@H]2[C@@H](C(=O)N[C@H](C#N)C[C@@H]3CCNC3=O)N(C(=O)[C@@H](NC(=O)C(F)(F)F)c3ccc(Cl)cc3)C[C@@H]21 | 420
